Measured values: patent publication US4409210A, “Antibiotic compound” (priority 1982, dated 1983)
*1 amine or outer side, *2 acyl side, *3 side chain or, on linkers, in order; H or OH if unused. Where a SMILES comes first, the peptide text is derived from it. Bridges are numbered along the chain shown (N, C = ends). [ ]: non-standard residue; d: D form. ξ: configuration not given here. X2 = CCCCCCCCCCCC(CC(=O)[*:1])O[*:2]; ξAsp(3ξ-OH) = NC(C(=O)O)C(O)C(=O)O; X1 = O=C(C1C(O)CCN1[*:1])[*:2]

Test system: Clindamycin-erythromycin-resistant strains of C. difficile and C. perfringens
Assay type: cell-based

**Q.** Which “concentration to which strains were susceptible” value does the source give for `CCCCCCCCCCCC1CC(=O)N2CCCC2C(=O)NC(CO)C(=O)N2CCCC2C(=O)NC(CCCNC(=N)N)C(=O)NC(C(O)C(=O)O)C(=O)NC(CO)C(=O)N2CCC(O)C2C(=O)NC(C(O)C(=O)O)C(=O)O1` (stereo not shown) [Bu-2517] (PSPR[ξAsp(3ξ-OH)]S[X1][ξAsp(3ξ-OH)]; linker N-C via X2; configuration not given here) here?
**A.** The value was 1.6 to 3.1 µg/mL.
